In patent US8362031B2, “Lonidamine analogues and treatment of polycystic kidney disease” (University of Kansas, priority 2004, dated 2013):

Experiments:
[1] = tested on: M-1 Clone 20; human primary cyst epithelial cells (ADPKD cells); experiment: MTT cell proliferation assay with cAMP (FIGS. 9A-9B); format: cell-based; details: 48 hours
Protocol: Various compounds were tested for their effects on cell proliferation. In the study, the cell types were M-1 Clone 20, which is an immortalized cell line that mimics PKD, and human primary cyst epithelial cells, or ADPKD cells. The compounds were tested at 1 μM to 100 μM concentrations.
M-1 clone 20 (“M1 Clone 20”) cells are a model of PKD-like cells, which were created by stably transfecting parental “normal” M-1 immortalized renal cortical collecting duct cells with the C-terminal cytosolic domain (or C-tail) of mouse polycystin-1 (the protein product of the Pkd1 gene. The overexpressed C-tail acts in a dominant-negative fashion, conferring the PKD phenotype to these cells. Their characterization is described in: Sutters, M., Yamaguchi, T., Maser, R. L., Magenheimer, B. S., St. John, P. L., Abrahamson, D. R., Grantham, J. J. and Calvet, J. P. (2001) Polycystin-1 transforms the cAMP growth-responsive phenotype of M-1 cells. Kidney Int. 60, 484-494.
FIGS. 9A-9B include graphs that show cells grown in the vehicle (i.e. DMSO at two different volumes of 1 uL and 5 uL respectively), cAMP only, and then under the treatment drugs, all of which also had cAMP in them. The comparison drug used was 10 uM of gamendazole. […] Absorbance is a measure of cell number.
The comparison drug used was 10 uM Gamendazole. The MTT cell proliferation assay was carried out to assess cell number—cell proliferation is essentially cell number. […] Thus, absorbance is a measure of cell number, or cell proliferation. The reference bar is the third bar from the left (cAMP)—the degree of inhibition should be compared to that bar.

Male Long Evans rats = experiment: In vivo antispermatogenic testing in Long Evans rats; details: for Mortality (25 mg/kg) / Response 25 mg/kg: 25 mg/kg single i.p. injection; for Response 25 mg/kg / Response 200 mg/kg: animals responding out of animals surviving, five days following injection; for Mortality (200 mg/kg) / Response 200 mg/kg: 200 mg/kg single i.p. injection
[2] = tested on: Salmonella Typhimurium TA 100; experiment: Ames test for mutagenicity (plate assay, colony count); details: 48 hours at 37° C.; for Ames test (+)S9 0.1 mg/pl. / Ames test (+)S9 1 mg/pl. / Ames test (+)S9 10 mg/pl.: (+)S9 mix; for Ames test (−)S9 0.1 mg/pl. / Ames test (−)S9 1 mg/pl. / Ames test (−)S9 10 mg/pl.: (−)S9 mix
S. typhimurium TA100 = experiment: Colormetric Ames Test Procedure; format: cell-based; details: at the concentration given per compound (1.39-360.1 μM), 5 days at 37° C.
Protocol: The following procedures were performed aseptically. First, the day before the assay, as late as possible in the day, the vial labeled “G” Nutrient Broth was dispensed into the vial labeled S. typhimurium TA100 (lyophilized). The mixture was incubated over night at 37° C. for about 16-18 hours.
In appropriate vial, about 50 mg of the test compound was weighed out. About 1 mL of DMSO was added, and the mixture was filter sterilized with 25 mm syringe filter into a sterile tube. The concentration of DMSO was noted.
In a sterile 50 mL tube, about 15 mL of sterile Davis Mingioli Salt (see Davis & Mingioli, Aromatic biosynthesis, VII. Accumulation of two derivatives of shikimic acid by bacterial mutants, J. Bacteriol. 1953. August; 66(2): 129-36) was pipetted. This salt solution (Muta Component “A”) was comprised of (1) Milli-Q, 600 mL; (2) dipotassium phosphate, anhyd., 38.5 g; (3) monopotassium phosphate, anhyd. 11.0 g; (4) ammonium sulfate, 5.5 g; (5) trisodium citrate, 1.375 g; and (6) magnesium sulfate, 0.55 g. Appropriate volume of Milli-Q water was added to bring total volume to 1 L. Each component was dissolved one at a time in the above order. The solution was filtered through a 0.22 μm filter to remove sediment at a pH of about 7.3.
To the salt solution, small amounts of DMSO diluted compound was added, not to exceed 500 μl of DMSO. For example, about 100 μl aliquots of the DMSO diluted compound was added until the highest concentration is reached with compound still in solution. […] When the highest concentration of compound was determined, an appropriate volume of sterile Davis Mingioli salts was added to bring the total volume of solution to 17.5 mL. The concentration of compound and DMSO in the test solution was then noted.
The components were then mixed in a 50 mL sterile tube labeled Reaction Mixture as follows: 21.62 mL of A+4.75 ml of B (D-glucose, 40% w/v)+2.38 mL of C (bromocresol purple, 5 mg/ml)+1.19 ml of D (D-biotin, 0.1 mg/ml)+0.060 ml (60 μl) of E (L-histidine, 0.1 mg/ml). The vial was vortexed and then set aside.
The S9 Mixture was prepared by reconstituting the S9 enzymes with 2.1 mL of sterile water. This was labeled “S9F.” In a 50 mL tube labeled S9 Mixture, the following were mixed together (all available from EBIP): 0.4 mL of S9A (MgCl2, 0.4 M and KCl, 1.65 M)+0.09 mL of S9B (glucose-6-phosphate, 1.0 M)+0.81 mL of S9C (nicotine amide di-nucleotide phosphate, 0.1 M)+9.98 mL of S9D (phosphate buffer, pH 7.4)+6.72 mL of S9E (sterile distilled water)+2 mL of S9F (Rate liver extract). The vial was vortexed and then set aside.
Sterile tubes were labeled as follows: Blank, Background I, Background II, Standard Mutagen, Compound 1 (−), Compound 1 (S9+), Compound 2 (−), Compound 2 (S9+), Compound 3 (−), Compound 3 (S9+). Next, about 2.5 mL of the reaction mix was added to each tube. Then, about 2 mL of the S9 mix was added to the Background II and the S9+ compounds. Next, to each of the compound vials, about 8 mL of the prepared compounds was added. The concentration of the compound in the final solution was noted. Then, about 100 μl of the standard mutagen was added to the Standard mutagen vial. (NaN3 for non S9 activation and 2-aminoanthracene with S9 activation). The appropriate volume of sterile water was next added for a final volume of 17.5 mL. Then, about 5 μl of bacteria was added to each tube except the Blank. Each vial was vortexed and poured into a sterile multi-channel pipette boat, and pipette 200 μl per well into the 96 well plate with a multi channel pipetter. The plates were labeled, covered, placed in zip lock bag, and then incubated for 5 days at 37° C.
On day five of the incubation, the plates were removed from the incubator and placed in a laminar flow hood. The Blank was analyzed first. If there were any wells that were yellow, the test was considered contaminated and the results invalid. […]

Compound	Inhibition of cell proliferation (MTT absorbance) ([1]; 25 uM)	Ames test (+)S9 0.1 mg/pl. [2]	Ames test (+)S9 1 mg/pl. [2]	Ames test (+)S9 10 mg/pl. [2]	Ames test (−)S9 0.1 mg/pl. [2]	Ames test (−)S9 1 mg/pl. [2]	Ames test (−)S9 10 mg/pl. [2]	Colormetric Ames test, with S9 (S. typhimurium TA100)	Colormetric Ames test, without S9 (S. typhimurium TA100)	also measured
Cc1ccc2c(C(=O)NN)nn(Cc3ccc(Cl)cc3Cl)c2c1 [TH-2-179, 1-(2,4-dichlorobenzyl)-6-methyl-1H-indazole-3-carboxylic acid hydrazide]	more effective in inhibition of cell proliferation at 25 uM compared to 10 uM	Pass	Pass	Pass	Pass	Pass	Pass			Inhibition of cell proliferation (MTT absorbance) ([1]; 10 uM): more effective at 10 uM; Mortality (25 mg/kg) (Male Long Evans rats): 0/5; Response 25 mg/kg (Male Long Evans rats): 2/5; Mortality (200 mg/kg) (Male Long Evans rats): 0/5; Response 200 mg/kg (Male Long Evans rats): 5/5
Cc1ccc2c(/C=C/C(=O)O)nn(Cc3ccc(Cl)cc3Cl)c2c1 [TH-2-192, 3-[1-(2,4-dichlorobenzyl)-6-methyl-1H-indazol-3-yl]acrylic acid]	more effective in inhibition of cell proliferation at 25 uM compared to 10 uM	Pass	Pass	Pass	Pass	Pass	Pass			Mortality (25 mg/kg) (Male Long Evans rats): 0/5; Response 25 mg/kg (Male Long Evans rats): 0/5; Mortality (200 mg/kg) (Male Long Evans rats): 4/5; Response 200 mg/kg (Male Long Evans rats): 0/4
NNC(=O)c1nn(Cc2ccc(Cl)cc2Cl)c2cc(OC(F)(F)F)ccc12 [JWS-2-104, 1-(2,4-dichlorobenzyl)-6-trifluoromethoxy-1H-indazole-3-carboxylic acid hydrazide]								Pass*	Pass*	
COc1ccc2c(/C=C/C(=O)O)nn(Cc3ccc(Cl)cc3Cl)c2c1 [JWS-2-132, 3-[1-(2,4-dichlorobenzyl)-6-methoxy-1H-indazol-3-yl]acrylic acid]								Pass*	Pass*	
NNC(=O)c1nn(Cc2ccc(F)cc2Cl)c2cc(Cl)ccc12 [JWS-2-22, 1-(2-chloro, 4-fluorobenzyl)-6-chloro-1H-indazole-3-carboxylic acid hydrazide]	quite effective in inhibiting cell proliferation	Pass	Pass	Pass	Pass	Pass	Pass			
COC(=O)c1nn(Cc2ccc(Cl)cc2Cl)c2cccc(C)c12 [JWS-2-92, 1-(2,4-dichlorobenzyl)-4-methyl-1H-indazole-3-carboxylic acid methyl ester]								Pass*	Pass*	
NNC(=O)c1nn(Cc2ccc(F)cc2F)c2cc(Cl)ccc12 [JWS-1-282, 1-(2,4-difluorobenzyl)-6-chloro-1H-indazole-3-carboxylic acid hydrazide]	quite effective in inhibiting cell proliferation	Pass	Pass	Fail	Pass	Pass	Pass			
COC(=O)/C=C/c1nn(Cc2ccc(Cl)cc2Cl)c2cc(OC(F)(F)F)ccc12 [JWS-2-110, 3-[1-(2,4-dichlorobenzyl)-6-trifluoromethoxy-1H-indazol-3-yl]acrylic acid methyl ester]								Pass*	Pass*	
Cc1ccc2c(C(=O)O)nn(Cc3ccc(Cl)cc3Cl)c2c1 [TH-2-178, 1-(2,4-dichlorobenzyl)-6-methyl-1H-indazole-3-carboxylic acid]	more effective in inhibition of cell proliferation at 25 uM compared to 10 uM	Pass	Pass	Pass	Pass	Pass	Pass			Mortality (25 mg/kg) (Male Long Evans rats): 0/5; Response 25 mg/kg (Male Long Evans rats): 0/5; Mortality (200 mg/kg) (Male Long Evans rats): 0/5; Response 200 mg/kg (Male Long Evans rats): 4/5
O=C(O)/C=C/c1nn(Cc2ccc(Cl)cc2Cl)c2cc(OC(F)(F)F)ccc12 [JWS-2-112, 3-[1-(2,4-dichlorobenzyl)-6-trifluoromethoxy-1H-indazol-3-yl]acrylic acid]								Pass*	Pass*	
COC(=O)c1nn(Cc2ccc(Cl)cc2Cl)c2cc(OC(F)(F)F)ccc12 [JWS-2-100, 1-(2,4-dichlorobenzyl)-6-trifluoromethoxy-1H-indazole-3-carboxylic acid methyl ester]								Pass*	Pass*	
COc1ccc2c(C(=O)O)nn(Cc3ccc(Cl)cc3Cl)c2c1 [JWS-2-122, 1-(2,4-dichlorobenzyl)-6-methoxy-1H-indazole-3-carboxylic acid]								Pass*	Pass*	
COC(=O)c1nn(Cc2ccc(Cl)cc2Cl)c2cc(OC)ccc12 [JWS-2-120, 1-(2,4-dichlorobenzyl)-6-methoxy-1H-indazole-3-carboxylic acid methyl ester]								Pass*	Pass*	
O=C(O)c1nn(Cc2ccc(Cl)cc2Cl)c2cc(OC(F)(F)F)ccc12 [JWS-2-102, 1-(2,4-dichlorobenzyl)-6-trifluoromethoxy-1H-indazole-3-carboxylic acid]								Pass*	Pass*	
